Data: US20120122727A1, “IN VITRO METHOD FOR PREDICTING WHETHER A COMPOUND IS GENOTOXIC IN VIVO” (priority 2009, published 2012)

System: primary mouse hepatocytes
Test: Gene expression (Affymetrix Mouse Genome 430 2.0) in primary mouse hepatocytes, true vs false GTX, 24 h and 48 h
Settings: log2, corrected for vehicle control

SMILES: CN(C)N=O [DMN, Dimethylnitrosamine]
- Gene expression data AF000969 (Cadps2) (24 h average): −1.039
- Gene expression data AF022072 (Grb10) (24 h average): −1.913
- Gene expression data AF065917 (Lif) (24 h average): 1.804
- Gene expression data AF204959 (Cyp3a25 /// LOC622249) (24 h average): −0.2993
- Gene expression data AF297615 (Ggta1) (24 h average): 3.2188
- Gene expression data AI594683 (Dmn) (24 h average): 3.164
- Gene expression data AI596632 (Ptprg /// LOC632664) (24 h average): −1.9
- Gene expression data AI987929 (Ndrg1) (24 h average): −0.9838
- Gene expression data AK004419 (Fbxl17) (24 h average): −1.22
- Gene expression data AK005731 (1700007K13Rik) (24 h average): 5.486
- Gene expression data AK007766 (1810044A24Rik) (24 h average): −0.8706
- Gene expression data AK007854 (1810053B23Rik) (24 h average): 2.173
- Gene expression data AK009736 (Gpr137b /// LOC664862 /// LOC673335) (24 h average): −0.8367
- Gene expression data AK010447 (Smyd3) (24 h average): −1.0358
- Gene expression data AK014608 (4632434l11Rik) (24 h average): 1.756
- Gene expression data AK019979 (2610528E23Rik) (24 h average): −1.324
- Gene expression data AV095209 (Mthfd1l) (24 h average): −1.007
- Gene expression data AV141095 (1110033M05Rik) (24 h average): −1.375
- Gene expression data AV173571 (1700106N22Rik) (24 h average): −1.0106
- Gene expression data AV219418 (Ldhb) (24 h average): 2.743
- Gene expression data AV223474 (Zdhhc14) (24 h average): −0.9067
- Gene expression data AV298304 (Homez) (24 h average): 1.8715
- Gene expression data AV327248 (Zfp365 /// LOC674611) (24 h average): 4.114
- Gene expression data AV377066 (9130221J18Rik) (24 h average): 0.9605
- Gene expression data AW240761 (Tbc1d5) (24 h average): −1.191
- Gene expression data AW543460 (Pard3) (24 h average): −1.4802
- Gene expression data AW543723 (24 h average): 1.95
- Gene expression data AW986246 (Maoa) (24 h average): −0.372
- Gene expression data BB027848 (4732466D17Rik) (24 h average): 1.126
- Gene expression data BB043558 (9230114K14Rik) (24 h average): 2.407
- Gene expression data BB275142 (AW456874) (24 h average): 1.902
- Gene expression data BB308836 (Ppm1l) (24 h average): −0.9881
- Gene expression data BB318221 (Zdhhc14) (24 h average): −1.041
- Gene expression data BB463610 (4632434l11Rik) (24 h average): 1.9965
- Gene expression data BB526605 (Mipol1) (24 h average): −1.5816
- Gene expression data BB770528 (Rai2) (24 h average): 2.8
- Gene expression data BB821363 (Scfd2) (24 h average): −1.143
- Gene expression data BC004827 (Psat1) (24 h average): −1.518
- Gene expression data BC008626 (Icam1) (24 h average): 2.035
- Gene expression data BC010462 (BC010462) (24 h average): 0.7519
- Gene expression data BC012247 (Dcxr) (24 h average): 1.6567
- Gene expression data BC012260 (Psmf1) (24 h average): 1.0548
- Gene expression data BC015270 (Hist2h3c2) (24 h average): 0.9816
- Gene expression data BC016073 (Cdkal1) (24 h average): −1.243
- Gene expression data BC016265 (Ube2e2) (24 h average): −1.287
- Gene expression data BC019882 (Acaa1b) (24 h average): 2.057
- Gene expression data BC025501 (Aaas) (24 h average): 1.6386
- Gene expression data BC025837 (Sbk1) (24 h average): 0.9087
- Gene expression data BC025915 (Cova1) (24 h average): −0.9502
- Gene expression data BC026422 (Tgm1) (24 h average): 2.22
- Gene expression data BF719766 (Thyn1) (24 h average): 1.824
- Gene expression data BG065754 (Ccng1) (24 h average): 0.9587
- Gene expression data BG066903 (Kif16b) (24 h average): −0.8682
- Gene expression data BG069873 (Gnb1l) (24 h average): 2.2987
- Gene expression data BG070887 (Gtdc1) (24 h average): −1.112
- Gene expression data BG076151 (Ppm1d) (24 h average): 1.946
- Gene expression data BG261907 (Large) (24 h average): −1.3871
- Gene expression data BI651416 (Cdc42bpg) (24 h average): 1.7218
- Gene expression data BI660702 (Ell3) (24 h average): 2.514
- Gene expression data BM198879 (Ercc5) (24 h average): 1.2634
- Gene expression data BM230508 (A030007D23Rik) (24 h average): 2.304
- Gene expression data NM_007987 (Fas) (24 h average): 2.421
- Gene expression data NM_008522 (Ltf) (24 h average): 3.616
- Gene expression data NM_008576 (Abcc1) (24 h average): −0.9295
- Gene expression data NM_011176 (St14) (24 h average): 1.574
- Gene expression data NM_011316 (Saa4) (24 h average): 2.1585
- Gene expression data NM_012006 (Acot1) (24 h average): 2.033
- Gene expression data NM_013866 (Zfp385) (24 h average): 2.361
- Gene expression data NM_018770 (Igsf4a) (24 h average): −0.8412
- Gene expression data NM_021451 (Pmaip1) (24 h average): 3.698
- Gene expression data NM_025770 (Atg10) (24 h average): −0.5113
- Gene expression data NM_028803 (Gbe1) (24 h average): −1.103
- Gene expression data NM_030697 (Ankrd47) (24 h average): 3.211
- Gene expression data NM_053168 (Trim11) (24 h average): 1.0583
- Gene expression data NM_134188 (Acot2) (24 h average): −0.5001
- Gene expression data Y15910 (Diap2) (24 h average): −1.636
- Gene expression AA561726 average (48 h): −0.3534
- Gene expression AF000969 average (48 h): −1.114
- Gene expression AF022072 average (48 h): −1.2797
- Gene expression AF033112 average (48 h): 1.817
- Gene expression AF055573 average (48 h): −1.913
- Gene expression AF069954 average (48 h): 1.631
- Gene expression AF297615 average (48 h): 3.153
- Gene expression AF335325 average (48 h): 1.6857
- Gene expression AI594683 average (48 h): 3.7761
- Gene expression AI747296 average (48 h): −0.4333
- Gene expression AK005731 average (48 h): 4.617
- Gene expression AK007854 average (48 h): 0.8396
- Gene expression AK010447 average (48 h): −0.8634
- Gene expression AK010738 average (48 h): 1.343
- Gene expression AK014608 average (48 h): 1.391
